Reference: patent US20090093460A1, “Compositions” (AstraZeneca AB, priority 2003, published 2009)

Columns and labels:
dopamine D2 receptor = dopamine D2 receptor (Homo sapiens, UniProt P14416); experiment: In vitro binding, dopamine D2 receptor; details: dihydrochloride salt; read-out: binding affinity K1
mice [1] = experiment: Standard apomorphine climbing mouse assay; type: in vivo; details: p.o.
From the text: The methods and procedures used can be found in Warawa et al., J. Med. Chem., 2001, 44 (3), 372-389, and are incorporated herein by reference.

[2] = molecular target: T1, brain serotonin 5-HT2 receptor (Homo sapiens, UniProt P28223); experiment: In vitro binding, brain serotonin 5-HT2 receptor; details: dihydrochloride salt; read-out: binding affinity K1
T1 construct: from tissue; host or cells: brain

dopamine D1 receptor = molecular target: T2, dopamine D1 receptor (Homo sapiens, UniProt P21728); experiment: In vitro binding, dopamine D1 receptor; details: dihydrochloride salt; read-out: binding affinity K1
T2 construct: from tissue; host or cells: brain

mice [3] = experiment: Mouse forced swim test; type: in vivo; details: 5.0, 10.0 and 20.0 mg/kg sc, 15 minutes prior
Protocol: Methods: Mice were placed in cylinders of water (25.0° C.±1.5° C.) for 6 minutes. The amount of immobility was quantified during the last 4 minutes of each session. The experimental observer was blind to the treatment conditions. […] Imipramine 45.0 mg/kg and citalopram 15.0 mg/kg were measured as the salt and administered ip 60 minutes prior to the behavioural session.

mice [4] = experiment: Tail suspension test; type: in vivo, mouse; details: 30 mg/kg p.o., 60 minutes prior
Protocol: Antidepressant activity of 11-piperazin-1-yldibenzo[b,f][1,4]thiazepine was assessed in mice according to the tail suspension test. As shown in the results below, 11-piperazin-1-yldibenzo[b,f][1,4]thiazepine has antidepressant activity in mice.
In a first experiment, mice (n=10/group) were treated with vehicle, 2.0, 5.0, or 10.0 mg/kg of 11-piperazin-1-yldibenzo[b,f][1,4]thiazepine s.c. 15 minutes prior to the test session. Mice were suspended from their tails for 7 minutes. During the last 5 minutes of the test, the duration of immobility was recorded. In a second experiment, mice (n=10/group) were treated with vehicle, 30 mg/kg 11-piperazin-1-yldibenzo[b,f][1,4]thiazepine, or 30 mg/kg fluoxetine p.o. 60 minutes prior to the test session. Mice were suspended from their tails for 7 minutes. During the last 5 minutes of the test, the duration of immobility was recorded.

T1 sequence (P28223 whole entry): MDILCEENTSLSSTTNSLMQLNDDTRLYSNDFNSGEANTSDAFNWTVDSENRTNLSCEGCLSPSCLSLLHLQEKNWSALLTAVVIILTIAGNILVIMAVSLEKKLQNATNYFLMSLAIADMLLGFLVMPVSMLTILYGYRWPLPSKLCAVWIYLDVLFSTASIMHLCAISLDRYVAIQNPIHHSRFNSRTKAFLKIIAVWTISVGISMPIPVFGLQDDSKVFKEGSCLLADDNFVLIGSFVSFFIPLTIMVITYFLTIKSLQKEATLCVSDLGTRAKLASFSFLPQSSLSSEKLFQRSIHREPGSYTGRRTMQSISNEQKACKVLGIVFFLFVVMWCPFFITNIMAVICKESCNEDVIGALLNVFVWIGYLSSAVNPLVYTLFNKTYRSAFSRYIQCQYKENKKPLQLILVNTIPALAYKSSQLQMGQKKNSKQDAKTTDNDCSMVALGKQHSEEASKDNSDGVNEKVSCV
T2 sequence (P21728 whole entry): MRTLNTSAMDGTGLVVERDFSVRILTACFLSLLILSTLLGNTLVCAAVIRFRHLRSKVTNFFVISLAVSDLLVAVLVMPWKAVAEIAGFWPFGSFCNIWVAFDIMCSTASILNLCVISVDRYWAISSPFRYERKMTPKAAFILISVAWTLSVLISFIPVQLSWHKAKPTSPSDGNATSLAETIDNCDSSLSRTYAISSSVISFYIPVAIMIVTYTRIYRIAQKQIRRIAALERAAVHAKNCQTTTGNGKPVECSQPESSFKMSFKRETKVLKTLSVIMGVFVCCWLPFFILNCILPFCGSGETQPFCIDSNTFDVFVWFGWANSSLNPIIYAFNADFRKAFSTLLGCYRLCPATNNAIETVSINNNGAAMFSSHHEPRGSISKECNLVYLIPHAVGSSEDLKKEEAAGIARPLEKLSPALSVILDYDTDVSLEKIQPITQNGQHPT
dopamine D2 receptor, sequence (P14416 whole entry): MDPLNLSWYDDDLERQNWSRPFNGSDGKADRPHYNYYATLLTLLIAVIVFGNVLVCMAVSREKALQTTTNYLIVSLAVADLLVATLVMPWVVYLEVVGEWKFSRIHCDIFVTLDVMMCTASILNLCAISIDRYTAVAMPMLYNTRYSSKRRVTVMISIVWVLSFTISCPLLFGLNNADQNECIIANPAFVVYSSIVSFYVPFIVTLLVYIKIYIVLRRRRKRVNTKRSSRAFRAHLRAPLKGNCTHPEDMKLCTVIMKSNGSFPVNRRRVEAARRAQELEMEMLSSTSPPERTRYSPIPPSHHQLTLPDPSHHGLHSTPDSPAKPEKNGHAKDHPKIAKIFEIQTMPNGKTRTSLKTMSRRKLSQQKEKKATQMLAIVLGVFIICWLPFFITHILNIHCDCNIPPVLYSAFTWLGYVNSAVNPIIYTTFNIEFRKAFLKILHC

In the case of `Cl.Cl.c1ccc2c(c1)N=C(N1CCNCC1)c1ccccc1S2` [Example 2, 11-piperazin-1-yldibenzo[b,f][1,4]thiazepine, dihydrochloride salt], the Ki (dopamine D2 receptor) is reported as 234 nM, the “in vivo antipsychotic activity” value (mice [1]) is reported as “not found to be efficacious” and the Ki [2] is reported as 27 nM. The Ki (dopamine D1 receptor) was 1490 nM.
In the case of `OCCOCCN1CCN(C2=Nc3ccccc3Sc3ccccc32)CC1` [Quetiapine, reference compound], the “antidepressant effect (immobility)” value (mice [3]) is reported as “no effect”.
With `CNCCC(Oc1ccc(C(F)(F)F)cc1)c1ccccc1` (stereo not shown) [fluoxetine, reference compound] the “reduction of immobility, fraction of that of the vehicle control group” value (mice [4]) was “more than ½” and the “duration of immobility compared to the vehicle control group” value (mice [4]; p<0.01) was “significantly reduced immobility”.
